# How the values were obtained:
# Assay in all cases: In vitro MIC, 2010 surveillance isolates
# E. coli ESBL− = type: cell-based, Escherichia coli
# E. coli ESBL+ = type: cell-based, Escherichia coli
# K. pneumoniae ESBL− = type: cell-based, Klebsiella pneumoniae
# K. pneumoniae ESBL+ = type: cell-based, Klebsiella pneumoniae
# K. oxytoca = type: cell-based
# E. cloacae CeftazS = type: cell-based
# E. cloacae CeftazR = type: cell-based
# Enterobacter spp = type: cell-based
# A. baumanii = type: cell-based; details: for % R (resistance): CLSI breakpoints
# Acinetobacter spp = type: cell-based; details: for % R (resistance): CLSI breakpoints
# MSSA = type: cell-based
# MRSA = type: cell-based
# MS CoNS = type: cell-based, Coagulase-Negative Staphylococcus
# MR CoNS = type: cell-based, Coagulase-Negative Staphylococcus
# E. faecalis VS = type: cell-based
# E. faecalis VNS = type: cell-based
# E. faecium VS = type: cell-based
# E. faecium VNS = type: cell-based
substance,measurement,setting,value
piperacillin-tazobactam [Pip/tazo],% R (resistance),"E. coli ESBL−; Asia/Pac, Eucast breakpoints",2.5%
same,MIC90,"E. coli ESBL−; Asia/Pac, N=282",4 µg/mL
same,% R (resistance),"E. coli ESBL−; Europe, Eucast breakpoints",5.3%
same,MIC90,"E. coli ESBL−; Europe, N=1533",4 µg/mL
same,% R (resistance),"E. coli ESBL−; L. Amer, CLSI breakpoints",1.5%
same,MIC90,"E. coli ESBL−; L. Amer, N=389",4 µg/mL
same,% R (resistance),"E. coli ESBL−; N America, CLSI breakpoints",0.9%
same,MIC90,"E. coli ESBL−; N America, N=1172",4 µg/mL
same,% R (resistance),"E. coli ESBL+; Asia/Pac, Eucast breakpoints",7.3%
same,MIC90,"E. coli ESBL+; Asia/Pac, N=219",16 µg/mL
same,% R (resistance),"E. coli ESBL+; Europe, Eucast breakpoints",24.1%
same,MIC90,"E. coli ESBL+; Europe, N=274",> 64 µg/mL
same,% R (resistance),"E. coli ESBL+; L. Amer, CLSI breakpoints",7.7%
same,MIC90,"E. coli ESBL+; L. Amer, N=168",64 µg/mL
same,% R (resistance),"E. coli ESBL+; N America, CLSI breakpoints",6%
same,MIC90,"E. coli ESBL+; N America, N=134",64 µg/mL
same,% R (resistance),"K. pneumoniae ESBL−; Asia/Pac, Eucast breakpoints",2.1%
same,MIC90,"K. pneumoniae ESBL−; Asia/Pac, N=189",8 µg/mL
same,% R (resistance),"K. pneumoniae ESBL−; Europe, Eucast breakpoints",0%
same,MIC90,"K. pneumoniae ESBL−; Europe, N=361",8 µg/mL
same,% R (resistance),"K. pneumoniae ESBL−; L. Amer, CLSI breakpoints",1.9%
same,MIC90,"K. pneumoniae ESBL−; L. Amer, N=160",4 µg/mL
same,% R (resistance),"K. pneumoniae ESBL−; N America, CLSI breakpoints",0.7%
same,MIC90,"K. pneumoniae ESBL−; N America, N=671",8 µg/mL
same,% R (resistance),"K. pneumoniae ESBL+; Asia/Pac, Eucast breakpoints",47.6%
same,MIC90,"K. pneumoniae ESBL+; Asia/Pac, N=124",> 64 µg/mL
same,% R (resistance),"K. pneumoniae ESBL+; Europe, Eucast breakpoints",57%
same,MIC90,"K. pneumoniae ESBL+; Europe, N=151",> 64 µg/mL
same,% R (resistance),"K. pneumoniae ESBL+; L. Amer, CLSI breakpoints",51.7%
same,MIC90,"K. pneumoniae ESBL+; L. Amer, N=209",> 64 µg/mL
same,% R (resistance),"K. pneumoniae ESBL+; N America, CLSI breakpoints",51.9%
same,MIC90,"K. pneumoniae ESBL+; N America, N=108",> 64 µg/mL
same,% R (resistance),"K. oxytoca; Asia/Pac, Eucast breakpoints",17.6%
same,MIC90,"K. oxytoca; Asia/Pac, N=17",64 µg/mL
same,% R (resistance),"K. oxytoca; Europe, Eucast breakpoints",13.3%
same,MIC90,"K. oxytoca; Europe, N=158",> 64 µg/mL
same,% R (resistance),"K. oxytoca; L. Amer, CLSI breakpoints",16%
same,MIC90,"K. oxytoca; L. Amer, N=25",> 64 µg/mL
same,% R (resistance),"K. oxytoca; N America, CLSI breakpoints",7.9%
same,MIC90,"K. oxytoca; N America, N=177",16 µg/mL
same,% R (resistance),"E. cloacae CeftazS; Asia/Pac, Eucast breakpoints",1%
same,MIC90,"E. cloacae CeftazS; Asia/Pac, N=100",4 µg/mL
same,% R (resistance),"E. cloacae CeftazS; Europe, Eucast breakpoints",1.1%
same,MIC90,"E. cloacae CeftazS; Europe, N=183",4 µg/mL
same,% R (resistance),"E. cloacae CeftazS; L. Amer, CLSI breakpoints",3.5%
same,MIC90,"E. cloacae CeftazS; L. Amer, N=57",16 µg/mL
same,% R (resistance),"E. cloacae CeftazS; N America, CLSI breakpoints",0.5%
same,MIC90,"E. cloacae CeftazS; N America, N=210",4 µg/mL
same,% R (resistance),"E. cloacae CeftazR; Asia/Pac, Eucast breakpoints",55.6%
same,MIC90,"E. cloacae CeftazR; Asia/Pac, N=63",> 64 µg/mL
same,% R (resistance),"E. cloacae CeftazR; Europe, Eucast breakpoints",62.5%
same,MIC90,"E. cloacae CeftazR; Europe, N=72",> 64 µg/mL
same,% R (resistance),"E. cloacae CeftazR; L. Amer, CLSI breakpoints",23.8%
same,MIC90,"E. cloacae CeftazR; L. Amer, N=42",> 64 µg/mL
same,% R (resistance),"E. cloacae CeftazR; N America, CLSI breakpoints",48.1%
same,MIC90,"E. cloacae CeftazR; N America, N=77",> 64 µg/mL
same,% R (resistance),"Enterobacter spp; Asia/Pac, Eucast breakpoints",19.2%
same,MIC90,"Enterobacter spp; Asia/Pac, N=52",32 µg/mL
same,% R (resistance),"Enterobacter spp; Europe, Eucast breakpoints",32.9%
same,MIC90,"Enterobacter spp; Europe, N=82",64 µg/mL
same,% R (resistance),"Enterobacter spp; L. Amer, CLSI breakpoints",7.1%
same,MIC90,"Enterobacter spp; L. Amer, N=42",64 µg/mL
same,% R (resistance),"Enterobacter spp; N America, CLSI breakpoints",4%
same,MIC90,"Enterobacter spp; N America, N=101",64 µg/mL
same,MIC90,"A. baumanii; Asia/Pac, N=275",> 64 µg/mL
same,MIC90,"A. baumanii; Europe, N=145",> 64 µg/mL
same,% R (resistance),A. baumanii; L. Amer,88.7%
same,MIC90,"A. baumanii; L. Amer, N=275",> 64 µg/mL
same,% R (resistance),A. baumanii; N America,70.1%
same,MIC90,"A. baumanii; N America, N=154",> 64 µg/mL
same,MIC90,"Acinetobacter spp; Europe, N=43",> 64 µg/mL
same,% R (resistance),Acinetobacter spp; L. Amer,55.6%
same,% R (resistance),Acinetobacter spp; N America,19%
same,MIC90,"Acinetobacter spp; N America, N=42",> 64 µg/mL
same,% R (resistance),"MSSA; Asia/Pac, Eucast breakpoints",0%
same,MIC90,"MSSA; Asia/Pac, N=641",2 µg/mL
same,% R (resistance),"MSSA; Europe, Eucast breakpoints",0%
same,MIC90,"MSSA; Europe, N=2109",2 µg/mL
same,% R (resistance),"MSSA; L. Amer, CLSI breakpoints",0.2%
same,MIC90,"MSSA; L. Amer, N=590",2 µg/mL
same,% R (resistance),"MSSA; N America, CLSI breakpoints",0.1%
same,MIC90,"MSSA; N America, N=2373",2 µg/mL
same,% R (resistance),"MRSA; Asia/Pac, Eucast breakpoints",100%
same,MIC90,"MRSA; Asia/Pac, N=428",> 64 µg/mL
same,% R (resistance),"MRSA; Europe, Eucast breakpoints",100%
same,MIC90,"MRSA; Europe, N=750",> 64 µg/mL
same,% R (resistance),"MRSA; L. Amer, CLSI breakpoints",100%
same,MIC90,"MRSA; L. Amer, N=506",> 64 µg/mL
same,% R (resistance),"MRSA; N America, CLSI breakpoints",100%
same,MIC90,"MRSA; N America, N=2508",64 µg/mL
same,% R (resistance),"MS CoNS; Asia/Pac, Eucast breakpoints",0%
same,MIC90,"MS CoNS; Asia/Pac, N=18",1 µg/mL
same,% R (resistance),"MS CoNS; Europe, Eucast breakpoints",0%
same,MIC90,"MS CoNS; Europe, N=185",≤ 0.5 µg/mL
same,% R (resistance),"MS CoNS; L. Amer, CLSI breakpoints",0%
same,MIC90,"MS CoNS; L. Amer, N=67",1 µg/mL
same,% R (resistance),"MS CoNS; N America, CLSI breakpoints",0%
same,MIC90,"MS CoNS; N America, N=191",≤ 0.5 µg/mL
same,% R (resistance),"MR CoNS; Asia/Pac, Eucast breakpoints",100%
same,MIC90,"MR CoNS; Asia/Pac, N=77",> 64 µg/mL
same,% R (resistance),"MR CoNS; Europe, Eucast breakpoints",100%
same,MIC90,"MR CoNS; Europe, N=510",> 64 µg/mL
same,% R (resistance),"MR CoNS; L. Amer, CLSI breakpoints",100%
same,MIC90,"MR CoNS; L. Amer, N=301",> 64 µg/mL
same,% R (resistance),"MR CoNS; N America, CLSI breakpoints",100%
same,MIC90,"MR CoNS; N America, N=461",16 µg/mL
same,% R (resistance),"E. faecalis VS; Asia/Pac, Eucast breakpoints",0%
same,MIC90,"E. faecalis VS; Asia/Pac, N=214",8 µg/mL
same,% R (resistance),"E. faecalis VS; Europe, Eucast breakpoints",0%
same,MIC90,"E. faecalis VS; Europe, N=669",8 µg/mL
same,% R (resistance),"E. faecalis VS; L. Amer, CLSI breakpoints",0%
same,MIC90,"E. faecalis VS; L. Amer, N=290",8 µg/mL
same,% R (resistance),"E. faecalis VS; N America, CLSI breakpoints",0%
same,MIC90,"E. faecalis VS; N America, N=863",8 µg/mL
same,"range of MICs (N <10, shown instead of MIC90)","E. faecalis VNS; Asia/Pac, N=1",8
same,% R (resistance),"E. faecalis VNS; Europe, Eucast breakpoints",0%
same,"range of MICs (N <10, shown instead of MIC90)","E. faecalis VNS; Europe, N=8",4-16
same,% R (resistance),"E. faecalis VNS; L. Amer, CLSI breakpoints",0%
same,"range of MICs (N <10, shown instead of MIC90)","E. faecalis VNS; L. Amer, N=7",4-8
same,% R (resistance),"E. faecalis VNS; N America, CLSI breakpoints",0%
same,MIC90,"E. faecalis VNS; N America, N=38",8 µg/mL
same,MIC90,"E. faecium VS; Asia/Pac, N=106",> 64 µg/mL
same,MIC90,"E. faecium VS; Europe, N=303",> 64 µg/mL
same,MIC90,"E. faecium VS; L. Amer, N=51",> 64 µg/mL
same,MIC90,"E. faecium VS; N America, N=115",> 64 µg/mL
same,MIC90,"E. faecium VNS; Asia/Pac, N=24",> 64 µg/mL
same,MIC90,"E. faecium VNS; Europe, N=71",> 64 µg/mL
same,MIC90,"E. faecium VNS; L. Amer, N=41",> 64 µg/mL
same,MIC90,"E. faecium VNS; N America, N=478",> 64 µg/mL
